Experimental data reported in patent publication US20140343118A1, “METHODS OF TREATMENT USING ARYLCYCLOPROPYLAMINE COMPOUNDS” (Duke University, priority 2013, published 2014).

How the values were obtained:
[1] = tested on: MCF7 cells; experiment: Cell proliferation assay (total DNA content); format: cell-based; conditions: MCF7, 250 μM every other day for 10 days
Procedure: (§1) After 2 d, the cells were treated with fresh media containing the inhibitors at the concentrations indicated. Every 2 d, for a total of 6 or 10 d, respectively, the cells were treated similarly. […] Data are presented as the mean±SEM for triplicate wells in one representative experiment.

[2] = tested on: MDA-MB-231 cells; experiment: Cell proliferation assay (total DNA content); format: cell-based; conditions: MDA-MB-231, 250 μM every other day for 10 days
Procedure: as §1

[3] = tested on: HCC1143 cells; conditions: HCC1143, 250 μM every other day for 10 days
Procedure: as §1

[4] = tested on: HCC1937 cells; conditions: HCC1937, 250 μM every other day for 10 days
Procedure: as §1

[5] = tested on: MCF7 cells; experiment: Cell cycle analysis (BrdU/PI flow cytometry); format: cell-based; conditions: MCF7, 250 μM, 24 hours
Procedure: MCF7 cells were seeded at 400,000 cells per well in 6 well plates in DMEM/F12 (Invitrogen) containing 8% FBS, 1 mM sodium pyruvate and 0.1 mM non-essential amino acids. After 24 h, the cells were treated with fresh media containing the 250 μM inhibitor. After 48 h of treatment, the cells were pulsed for 2 h with BrdU (10 μg mL^−1). The cells were trypsinized and collected using cold IFA buffer (3 mL) (4% charcoal stripped FBS, 150 mM sodium chloride, 10 mM HEPES, pH 7.5). They were washed with PBS, resuspended in 1 mL of PBS and fixed with 70% ethanol. The cells were incubated for 30 min on ice and then stored at −20° C. The cells were washed with PBS containing 0.5% BSA. The pellet was denatured with 2 M hydrochloric acid containing 0.5% BSA. The residual acid was neutralized using 0.1M sodium borate, pH 8.5. The cell pellet was resuspended in dilute anti-BrdU-alexa fluor-488 antibody (Molecular Probes) (PBS+0.5% Tween 20+0.5% BSA+5% antibody). After washing excess away, the cell pellets were resuspended in PI+RNase A (10 μg mL^−1 propidium iodide and 10 μg mL^−1 RNase A in PBS). The cells were vortexed and analyzed using flow cytometry (Accuri C6).

[6] = tested on: histone H3K4-Me2 and H3K9-Me2 in MCF7 cells; experiment: Western blot of global histone dimethylation; format: cell-based; conditions: inhibitors 250 μM for 24 h
Procedure: (§2) MCF7 cells or MDA-MB 231 cells were seeded in six-well plates. Cells were treated after 48 h with inhibitor for 24 h. Whole-cell extracts were isolated using RIPA buffer [50 mM Tris (pH 8.0), 200 mM NaCl, 1.5 mM MgCl2, 1% Nonidet P-40 (NP40), 1 mM EGTA, 10% glycerol, 50 mM NaF, 2 mM Na3VO4 and 1× protease inhibitor mixture]. Crude histones were extracted from the lysate pellet by resuspending in water and precipitating with 25% TCA. The pellets were washed with acetone and then resuspended. Concentration of whole-cell lysate or resuspended histones was determined using Bio-Rad Bradford reagent using BSA for standard curve. For each sample, proteins were resolved by SDS-PAGE and transferred to a PVDF membrane (Biorad).
(§3) H3K4-Me2 was detected using polyclonal rabbit antibody (Millipore 07-030). H3K9-Me2 was detected using a monoclonal mouse antibody (Abcam ab1220). Total H3 was detected using a polyclonal rabbit antibody (Abcam ab1791). LSD1 was detected using a monoclonal rabbit antibody (Millipore 05-939) or polyclonal rabbit antibody (Abcam ab17721). ERα (D12) was detected using monoclonal mouse antibody (Santa Cruz sc-8005). GAPDH was detected using polyclonal goat antibody (Santa Cruz sc-20357). Secondary antibodies were purchased from Bio-Rad.

[7] = tested on: histone H3K4-Me2 and H3K9-Me2 in MDA-MB-231 cells; experiment: Western blot of global histone dimethylation; format: cell-based; conditions: inhibitors 250 μM for 24 h
Procedure: as §2, §3

[8] = tested on: MCF7 cells; conditions: MCF7, 24 h, up to 500 μM
[9] = tested on: MDA-MB-231 cells; conditions: MDA-MB-231, 24 h, up to 500 μM
[10] = molecular target: T1, recombinant LSD1 (Homo sapiens, UniProt O60341); experiment: LSD1 horseradish peroxidase coupled enzyme assay, time-dependent inactivation kinetics; format: biochemical
T1 construct: made in house
Procedure: For example, compounds may be assayed for their ability to inhibit the enzymatic activity of recombinant LSD1 utilizing a horseradish peroxidase coupled assay for the detection of hydrogen peroxide formed in the demethylase catalytic cycle.
LSD1 overexpression, purification and horseradish peroxidase coupled enzyme assay were performed as previously described.
Inhibitors were prepared as 100 mM stocks in dimethylsulfoxide (DMSO) before dilution into assay reagents at appropriate concentrations. Progress curves for time-dependent enzyme inactivation were fit to Equation 1
Product=(vi/kobs)*(1−exp^−kobs*t) (1)
to obtain values of kobs as a function of inhibitor concentration, which were then fit to Equation 2 to obtain values of kinact and K1.

[11] = molecular target: T2, MAO B (Homo sapiens, UniProt P27338); experiment: Inhibition kinetics of MAO B
T2 sequence (P27338 1-520): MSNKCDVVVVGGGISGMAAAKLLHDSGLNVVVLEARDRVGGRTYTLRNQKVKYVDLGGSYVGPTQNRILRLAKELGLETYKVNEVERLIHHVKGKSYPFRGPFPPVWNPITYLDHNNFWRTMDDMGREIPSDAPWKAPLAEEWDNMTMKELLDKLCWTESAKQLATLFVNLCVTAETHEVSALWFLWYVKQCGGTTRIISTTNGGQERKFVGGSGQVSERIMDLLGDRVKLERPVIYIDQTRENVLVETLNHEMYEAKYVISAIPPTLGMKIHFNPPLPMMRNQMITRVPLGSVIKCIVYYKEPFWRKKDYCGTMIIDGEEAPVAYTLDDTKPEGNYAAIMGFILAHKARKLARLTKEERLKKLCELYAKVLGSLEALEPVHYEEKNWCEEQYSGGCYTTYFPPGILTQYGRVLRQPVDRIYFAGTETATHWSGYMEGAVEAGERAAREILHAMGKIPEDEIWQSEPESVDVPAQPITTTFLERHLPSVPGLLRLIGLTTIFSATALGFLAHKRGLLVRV

N[C@@H]1C[C@H]1c1ccccc1 (relative stereo) [Compound 2-PCPA, trans-2-Phenylcyclopropylamine]
cell proliferation [1]: significantly decreased cell proliferation
cell proliferation [2]: significantly decreased cell proliferation
cell proliferation [3]: significantly decreased cell proliferation
cell proliferation [4]: significantly decreased cell proliferation
cell cycle arrest (accumulation in G1 and G2/M, decrease in S phase) [5]: growth arrested
level of global histone H3K4-Me2 [6]: increased
level of global histone H3K9-Me2 [6]: significant changes were not observed
level of global histone H3K4-Me2 [7]: robust increases
level of global histone H3K9-Me2 [7]: robust increases
induction of apoptosis [8]: did not induce apoptosis
induction of apoptosis [9]: did not induce apoptosis

CCOc1ccc(C2CC2N)cc1 (stereo not shown) [Compound 1b]
kinact ([10]; LSD1 inactivation): 0.02 ± 0.002 s⁻¹

NC1CC1c1ccc(Oc2ccccc2)cc1 (stereo not shown) [Compound 1d]
kinact [11]: 0.032 ± 0.002 s⁻¹

NC1CC1c1cccc(OCc2ccccc2)c1 (stereo not shown) [Compound 1e]
kinact ([10]; LSD1 inactivation): 0.025 ± 0.005 s⁻¹

CC(C)(C)c1ccc(Sc2ccc(C3CC3N)cc2)cc1 (stereo not shown) [Compound 1f]
Ki ([10]; LSD1 inactivation): 540 ± 160 µM
kinact ([10]; LSD1 inactivation): 0.022 ± 0.003 s⁻¹

C#CCNCc1ccccc1 [Compound 2a]
kinact/KI ([10]; LSD1 inactivation): < 0.6 M⁻¹ s⁻¹

C#CCNCc1ccc(OC(C)C)cc1 [Compound 2b]
kinact/KI ([10]; LSD1 inactivation): < 0.8 M⁻¹ s⁻¹

C#CCNCc1ccc(Oc2ccccc2)cc1 [Compound 2c]
kinact/KI ([10]; LSD1 inactivation): < 0.3 M⁻¹ s⁻¹

C#CCN(C)Cc1ccccc1 [pargyline]
concentration needed to inhibit LSD1 in vitro [10]: greater than 5 mM
kinact/KI ([10]; LSD1 inactivation): < 0.2 M⁻¹ s⁻¹
enzymatic activity remaining ([10]; concentrations as high as 10 mM, prolonged exposure): greater than 70%
